Assays:
Format in all cases: in vivo
[1] = tested on: Abutilon theophrasti; test: Post-emergence herbicidal action against weed plants; conditions: 504 h, one-leaf stage, visual assessment after about 3 weeks vs untreated controls (100% = plants have died)
Protocol: (§1) 2. Post-emergence Herbicidal Action Against Weed Plants Seeds of monocotyledonous and dicotyledonous weed and crop plants are placed in sandy loam in wood-fiber pots, covered with soil and cultivated in a greenhouse under good growth conditions. 2 to 3 weeks after sowing, the test plants are treated at the one-leaf stage. The inventive compounds formulated in the form of wettable powders (WP) or as emulsion concentrates (EC) are then sprayed onto the green parts of the plants as an aqueous suspension or emulsion at a water application rate of 600 to 800 I/ha (converted) with addition of 0.2% wetting agent. After the test plants have been left to stand in the greenhouse under optimal growth conditions for about 3 weeks, the action of the formulations is assessed visually in comparison to untreated controls (herbicidal action in percent (%): 100% activity=the plants have died, 0% activity=like control plants).

[2] = tested on: Stellaria media; test: as above; conditions: 504 h, one-leaf stage, visual assessment after about 3 weeks vs untreated controls (100% = plants have died)
Protocol: as §1

[3] = tested on: maize; test: Pre-emergence test, damage to crop plants; conditions: 320 g/ha, visual assessment after 3 weeks

Structure (SMILES)	pest or weed control at 80 g/ha [1] [%]	pest or weed control at 80 g/ha [2] [%]	damage in maize [3]
Cc1c(C(=O)Nc2nnnn2C)ccc([N+](=O)[O-])c1OCC1COCCO1 (stereo not shown) [1-119]	≥ 80	≥ 80	–
CCn1nnnc1NC(=O)c1ccc([N+](=O)[O-])c(OCCOC)c1Cl [2-61]	–	–	no damage whatsoever
CCn1nnnc1NC(=O)c1ccc([N+](=O)[O-])c(OC)c1Br [2-1]	≥ 80	≥ 80	–
COc1c([N+](=O)[O-])ccc(C(=O)Nc2nnnn2C)c1Cl [1-44]	≥ 80	≥ 80	–
CCn1nnnc1NC(=O)c1ccc([N+](=O)[O-])c(OCCOC)c1C [2-104]	–	–	no damage whatsoever
Cn1nnnc1NC(=O)c1ccc([N+](=O)[O-])c(OCC2COCCO2)c1Br (stereo not shown) [1-34]	≥ 80	≥ 80	no damage whatsoever
CCn1nnnc1NC(=O)c1ccc([N+](=O)[O-])c(OCCCOC)c1Cl [2-62]	–	–	no damage whatsoever
CCn1nnnc1NC(=O)c1ccc([N+](=O)[O-])c(OCC(=O)N(C)C)c1C [2-123]	–	–	no damage whatsoever
CCOCCOc1c([N+](=O)[O-])ccc(C(=O)Nc2nnnn2C)c1Br [1-20]	–	–	no damage whatsoever
COCCOc1c([N+](=O)[O-])ccc(C(=O)Nc2nnnn2C)c1Cl [1-61]	–	–	no damage whatsoever
CCn1nnnc1NC(=O)c1ccc([N+](=O)[O-])c(OCCCOC)c1Br [2-19]	–	–	no damage whatsoever
COCCCOc1c([N+](=O)[O-])ccc(C(=O)Nc2nnnn2C)c1Cl [1-62]	–	–	no damage whatsoever
CCn1nnnc1NC(=O)c1ccc([N+](=O)[O-])c(OCC2COCCO2)c1C (stereo not shown) [2-120]	≥ 80	≥ 80	–
COc1c([N+](=O)[O-])ccc(C(=O)Nc2nnnn2C)c1Br [1-1, 2-bromo-3-methoxy-N-(1-methyl-1H-tetrazol-5-yl)-4-nitrobenzamide]	≥ 80	≥ 80	–
Cn1nnnc1NC(=O)c1ccc([N+](=O)[O-])c(OCC2OCCO2)c1Cl [1-78]	≥ 80	≥ 80	no damage whatsoever
CCn1nnnc1NC(=O)c1ccc([N+](=O)[O-])c(OC)c1Cl [2-44]	≥ 80	≥ 80	–
Cn1nnnc1NC(=O)c1ccc([N+](=O)[O-])c(OCC2COCCO2)c1Cl (stereo not shown) [1-77]	≥ 80	≥ 80	no damage whatsoever
CCn1nnnc1NC(=O)c1ccc([N+](=O)[O-])c(OCC2COCCO2)c1Br (stereo not shown) [2-34]	≥ 80	≥ 80	–

From patent US9169219B2, “Herbicidally active 4-nitro-substituted N-(tetrazol-5-yl)-, N-(triazol-5-yl)-, and N-(1,3,4-0XADIAZOL-2-yl)aryl carboxylic acid amides” (BAYER INTELLECTUAL PROPERTY GMBH, priority 2012, dated 2015)
